According to US20020068749A1, “AIDS REMEDY” (priority 1996, published 2002):
≈ marks a conversion by molar mass, not a printed value. Each block holds one compound with its values, some of them ahead of it.

Columns and labels:
[1] = Change of concentration in plasma over time after oral administration to rats (KNI-272 with Indinavir or Nelfinavir); conditions: for AUC: rat, plasma, po, 40 mg/kg, AUC value of Indinavir
Method: In this example, the change in concentration in blood of KNI-272 over time when the KNI-272 was orally administered in combination with Indinavir, i.e. the change in the concentration of a non-binding type of drug in plasma over time, was measured to evaluate the effect of drug interactions on fluctuations of dynamics in vivo. A commercially available Indinavir for oral administration, CRIXIVAN™ (manufactured by Merck), was used after dissolving Indinavir sulfate in a prescribed concentration. As KNI-272, a suspension prepared from a fine powder of KNI-272 was used. Rats were used as test animals. […] In addition, each compound was individually administered to control groups to evaluate the dynamics in vivo. The animals were fasted for 16 hours before administration. The measurement of the change in the non-binding drug concentration in plasma over time was carried out according to a conventional method using blood samples collected from the test animals.
The method of evaluation was applied to the above-mentioned system of Indinavir and KNI-272 was followed. […] In this example, a dosage of 50 mg/kg was selected for both Nelfinavir and KNI-272.

HIV Wild strain (IIIB) = assay: Anti-virus activity IC50 against wild strain; assay type: cell-based; conditions: Wild strain (IIIB)
KNI-272 resistant strain = assay: microbe, parasite or virus in culture; assay type: cell-based, HIV
Text: (§1) A drug resistant strain virus is a resistance strains induced in a cell culture system in vitro while maintaining infection in the presence of each medicament through generations.

[2] = system: Ritonavir resistant strain; assay: Anti-virus activity IC50 against Ritonavir resistant strain; assay type: cell-based, HIV; conditions: Ritonavir resistant strain
[3] = system: IIIB strain of HIV-1 in CEM-SS cells; assay: Measurement of anti-HIV activity in vitro (XTT method, control of cellular denaturalization due to HIV infection); assay type: cell-based
Method: An increase in the synergistic anti-virus activity in the combined use of KNI-272 and Saquinavir is shown by a specific experimental example. The anti-virus activity was evaluated as the capability of controlling generation of infectious virus particles in vitro. The effect of cell extinction to HIV infection was calculated when Saquinavir methanesulfonate and KNI-272 respectively or both were added to a culture liquid, to determine the concentration region where a synergistic increase in the anti-virus activity in the combined use of the two compounds is conspicuous. Measurement of the anti-virus activity in vitro was carried out according to the following procedure. In the description hereinafter the concentration of methanesulfonate is indicated as the concentration converted into Saquinavir. The concentration of KNI-272 is indicated as the concentration of the compound itself.
A IIIB strain of HIV-1 was used as an HIV wild strain and CEM-SS cells were used as infected cells in the above-mentioned culture. The amount of HIV sufficient to kill all CEM-SS cells 6 days after inoculation (multiplicy of infection, MOI of 0.01-0.05) was determined and this amount of HIV was added. A 96 well micro-titre plate was used to inoculate 5×10^3 CEM-SS cells per well in this case. At the time of inoculation of cells, a test compound was added to the culture medium to a prescribed concentration. Three specimens were used for each test level. The following controls were used (1) as calorimetric controls: a sample with only a test compound added to the culture medium, (2) as a cytotoxic control for a test compound: a sample with only cells and the test compound added to the culture medium, (3) as a virus control: a sample with the cells inoculated with only a virus, and (4) as a cell survival control, a sample consisting only of cells. In addition, AZT and DDC which are compounds with a known anti-HIV activity were used as positive controls. After the cells were added, they were inoculated with the infecting virus, followed by incubation at 37° C.for 6 days. Cellular denaturalization due to HIV infection was colorimetrically measured for each well. Employing the colorimetry, was the metabolism from XTT Tetrazolium to XTT Formazan was evaluated. This colorimetry is called the XTT method (see Weislow et al., Journal of the National Cancer Institute 81, 577-586 (1989)). After the above-mentioned incubation, a prescribed amount of XTT was added to each well and incubation was continued for a further four hours at 37° C. to measure the amount of XTT Formazan produced by metabolism by means of calorimetric quantitation.
The anti-HIV activity for each experimental level was calculated by comparing the number of undenatured cells measured by the above-mentioned assay with the corresponding number of cells in the four control groups. Specifically, the proportion of cellular denaturalization due to HIV infection controlled by the addition of the test compound was calculated. A systematic deviation between the several experiments was corrected based on the results of AZT and ddC used as positive controls.
In this example, 0 ng/ml and several concentrations in the range of 0.625-10.0 ng/ml of Saquinavir methanesulfonate and 0 ng/ml and several concentrations in the range of 0.313-80.0 ng/ml of KNI-272 were used. The results (anti-HIV activities) obtained under these conditions using either one of these medicaments or both medicaments in combination are shown in Table 1.
With regard to this concentration region wherein no synergistic increase can be seemingly identified, a similar evaluation was carried out adding a larger amount of HIV to qualitatively evaluate the presence or absence of a synergistic effect. […] This affords qualitative results rather than quantitative results.
An increase in the synergistic anti-virus activity in the combined use of KNI-272 and Ritonavir is shown by a specific experimental example. […]

[4] = Dynamics in vivo (concentration in plasma over time) of KNI-272 and Ritonavir in dogs
[5] = system: Indinavir resistant strain; assay: Anti-virus activity IC50 against Indinavir resistant strain; assay type: cell-based, HIV; conditions: Human immunodeficiency virus 1, read-out: Anti-virus activity IC50
Text: as §1

[6] = Indinavir 40 mg/kg + KNI-272 40 mg/kg p.o. at the same time
[7] = Human immunodeficiency virus 1, read-out: Anti-virus activity IC50

SMILES: Cc1c(O)cccc1C(=O)N[C@@H](CSc1ccccc1)[C@H](O)CN1C[C@H]2CCCC[C@H]2C[C@H]1C(=O)NC(C)(C)C (relative stereo) [Nelfinavir, [3S-[2(2S*, 3S*), 3α, 4α, 8aβ]]-N-1,1-dimethylethyl-decahydro-2-[2-hydroxy-3-[(3-hydroxy-2-methylbenzoyl)amino]-4-(phenylthio)butyl]-3-isoquinolinecarboxamide, reference compound]
AUC value for Nelfinavir ([1]; Nelfinavir 50 mg/kg p.o. only): 130 µg·min/mL
AUC value for Nelfinavir ([1]; Nelfinavir 50 mg/kg p.o. simultaneously with KNI-272 50 mg/kg): 215 µg·min/mL
increase in AUC value for Nelfinavir ([1]; Nelfinavir 50 mg/kg with KNI-272 50 mg/kg vs alone): ~1.6 times
Anti-virus activity IC50 (HIV Wild strain (IIIB)): 0.007 µg/mL
Anti-virus activity IC50 (KNI-272 resistant strain; KNI-272 resistant strain): 0.030 µg/mL
Anti-virus activity IC50 [2]: 0.124 µg/mL

influence of combined use of KNI-272 on the dynamics in vivo of Ritonavir ([4]; KNI-272 administered immediately after Ritonavir, dogs): no apparent influence
MRT value (index of the half-life of concentration in blood) ([4]; medicaments individually administered): ≥ 180 minutes and more than 180 minutes
SMILES: CC(C)c1nc(CN(C)C(=O)NC(C(=O)N[C@@H](Cc2ccccc2)C[C@H](O)[C@H](Cc2ccccc2)NC(=O)OCc2cncs2)C(C)C)cs1 (relative stereo) [Ritonavir, [5S-(5R*, 8R*, 10R*,11R*)]-10-hydroxy-2-methyl-5-(1-methylethyl)-1-[2-(1-methylethyl)-4-thiazolyl]-3,6-dioxo-8,11-bis(phenylmethyl)-2,4,7,12-tetraaza-tridecane-13-hydroxyacid 5-thiazolylmethyl ester, reference compound]
Anti-HIV activity (%) ([3]; Ritonavir 1.25 ng/ml alone): 2.0%
Anti-HIV activity (%) ([3]; Ritonavir 2.5 ng/ml alone): 2.3%
Anti-HIV activity (%) ([3]; Ritonavir 5.0 ng/ml alone): 0.5%
Anti-HIV activity (%) ([3]; Ritonavir 10.0 ng/ml alone): 8.9%

SMILES: CC(C)(C)NC(=O)[C@@H]1CN(Cc2cccnc2)CCN1C[C@@H](O)C[C@@H](Cc1ccccc1)C(=O)N[C@H]1c2ccccc2C[C@H]1O [Indinavir, [1(1S, 2R),5(S)]-2,3,5-trideoxy-N-(2,3-dihydro-2-hydroxy-1H-indane-1-yl)-5-[2-(1,1-dimethylethyl)aminocarbonyl-4-(3-pyridinylmethyl)-1-piperazinyl]-2-(phenylmethyl)-D-erythro-pentonamide, reference compound]
increase in maximum concentration in blood value (Cmax) of Indinavir [1, 6]: as much as twice
increase in the AUC value of Indinavir [1, 6]: almost two times
AUC ([1]; Indinavir 40 mg/kg p.o. individually): 17200 ng·h/mL
AUC ([1]; Indinavir 40 mg/kg p.o. together with KNI-272 40 mg/kg): 44300 ng·h/mL
IC50 (HIV Wild strain (IIIB); [7]): 0.009 µg/mL (≈ 0.0147 µM)
IC50 [5]: 0.576 µg/mL (≈ 0.938 µM)
IC50 (KNI-272 resistant strain; [7]): 0.03 µg/mL (≈ 0.0489 µM)
